Structures can show the parent of a compound that is named as a salt. Where two headings read alike, the source gives them in different places.
Legend:
[1] = tested on: malignant tumor patients; assay: Preliminary and overall therapeutic effect in malignant tumor patients; format: in vivo, human; conditions: continuous administration for two weeks and rest for one week
Method: The malignant tumor patients those were diagnosed definitely and had failed standard treatment or lacking standard treatment were recruited for phase I study of tolerance and preliminary therapeutic effect. The tolerance was observed when patients were administered 5 mg or 10 mg of the capsules of dihydrochloride of Compound I once daily respectively for at least 2 cycles continuously, wherein each cycle was 28 days.
After the adjustment of the dosage regimen, the malignant tumor patients those were diagnosed definitely and had failed standard treatment or lacking standard treatment were recruited, continuous administrating for 2 weeks and resting for 1 week were applied, i.e., 3 weeks (21 days) was a treatment cycle, and the observation of tolerance was continuously performed and maintained at least 2 cycles (42 days), and the observation of therapeutic effects was performed at the same time.

[2] = Pharmacokinetics of continuous administration (2 weeks, rest 1 week) in solid tumour subjects; format: in vivo; conditions: human, plasma, oral
Method: (§1) All the solid tumour subjects participating in the tolerance research in Example 3 were performed a monitor of plasma concentration to evaluate pharmacokinetic parameters of the capsule of Compound I dihydrochloride. • (1) Pharmacokinetics of Single Administration
The qualified subjects took the drug once and performed pharmacokinetic monitor of single administration. After subjecting to at least 7 days of a washout period, pharmacokinetic studies of continuous administration were performed. One treating cycle has continuous administration for 2 weeks and rest for 1 week, and continuous monitor were applied for at least 2 cycles. A total of 21 subjects in 3 dose groups (10 mg, 16 mg and 12 mg, respectively) continuously took the capsules of Compound I dihydrochloride, while performing the monitor of plasma concentration.

[3] = Pharmacokinetics of single administration in solid tumour subjects; format: in vivo; conditions: human, plasma, single oral administration
Method: as §1
After beginning the tests, the qualified subjects took the capsule of Compound I dihydrochloride once and performed pharmacokinetic studies of single administration.

Structure (SMILES): COc1cc2c(Oc3ccc4[nH]c(C)cc4c3F)ccnc2cc1OCC1(N)CC1 [Compound I dihydrochloride, 1-[[[4-(4-fluoro-2-methyl-1H-indol-5-yl)oxy-6-methoxyquinolin-7-yl]oxy]methyl]cyclopropylamine dihydrochloride]
- therapeutic effects, overall [1]: various tumours can benefit

Structure (SMILES): COc1cc2c(Oc3ccc4[nH]c(C)cc4c3F)ccnc2cc1OCC1(N)CC1 [Compound I, 1-[[[4-(4-fluoro-2-methyl-1H-indol-5-yl)oxy-6-methoxyquinolin-7-yl]oxy]methyl]cyclopropylamine]
- Cmax ([2]; 10 mg/person, n = 3, average (RSD %)): 64.9 ng/mL
- Cmax ([2]; 12 mg/person, n = 15, average (RSD %)): 67 ng/mL
- Cmax ([2]; 16 mg/person, n = 3, average (RSD %)): 93.1 ng/mL
- AUC(0-inf) ([3]; 10 mg/person, n = 4, mean): 570 ng·h/mL
- AUC(0-t) ([3]; 10 mg/person, n = 4, mean): 327 ng·h/mL
- Cmax ([3]; 10 mg/person, n = 4, mean): 6.07 ng/mL
- MRT ([3]; 10 mg/person, n = 4, mean): 142 h
- Tmax ([3]; 10 mg/person, n = 4, mean): 6.75 h
- half-life ([3]; 10 mg/person, n = 4, mean, read-out: t1/2 (converted)): 3.7 days
- AUC(0-inf) ([3]; 12 mg/person, n = 11, mean): 1160 ng·h/mL
- AUC(0-t) ([3]; 12 mg/person, n = 11, mean): 938 ng·h/mL
- Cmax ([3]; 12 mg/person, n = 11, mean): 11.3 ng/mL
- MRT ([3]; 12 mg/person, n = 11, mean): 162 h
- Tmax ([3]; 12 mg/person, n = 11, mean): 8.73 h
- half-life ([3]; 12 mg/person, n = 11, mean, read-out: t1/2 (converted)): 3.83 days
- AUC(0-inf) ([3]; 16 mg/person, n = 4, mean): 1720 ng·h/mL
- AUC(0-t) ([3]; 16 mg/person, n = 4, mean): 1330 ng·h/mL
- Cmax ([3]; 16 mg/person, n = 4, mean): 16.1 ng/mL
- MRT ([3]; 16 mg/person, n = 4, mean): 163 h
- Tmax ([3]; 16 mg/person, n = 4, mean): 10 h
- half-life ([3]; 16 mg/person, n = 4, mean, read-out: t1/2 (converted)): 4.03 days
- half-life ([3]; read-out: half-life period (t1/2)): 3.33 to 4.17 days

— patent publication US10251876B2, “Method for treating tumour, pharmaceutical composition and medicinal kit” (CHIA TAI TIANQING PHARMACEUTICAL GROUP CO., LTD., priority 2014, dated 2019)
